# How the values were obtained:
# HFLS-OA cells = assay: aggrecan cleavage inhibitory activity in synovial cells; assay type: cell-based, human; conditions: Table 11, culture supernatant after 3 days
# Protocol: The aggrecan cleavage inhibitory activity of the aptamers shown in SEQ ID NOs: 11(34), 28(13), 28(15), 28(18) in synovial cells was measured. The measurement was performed by the following method. Synovial cells (HFLS-OA cells) (manufactured by Cell Applications) derived from human knee osteoarthritis patients were seeded at 2×10^4 cells per well, and cultured for 16-24 hr. The culture method followed the manual of Cell Applications. After culturing, the medium was removed, the cells were washed with Basal Medium (manufactured by Cell Applications), and 500 ng of aggrecan G1-IGD-G2 (manufactured by R&D systems) diluted with Basal Medium as a substrate was added. The aptamer was added simultaneously with the substrate to the samples to be evaluated for inhibition by the aptamer. The cells were kept cultured and the culture supernatant was collected after 3 days. The added substrate is cleaved during culture by substrate-cleaving enzymes such as ADAMTS5 secreted from the HFLS-OA cells. The amount of the cleaved substrate fragment contained in the culture supernatant was quantified by the ELISA method described in Example 5. The substrate cleavage efficiency in this evaluation system was 1-8%. The nucleic acid shown in SEQ ID NO: 15 was used as a negative control.
# ADAMTS5 = target: T1, ADAMTS5 (Homo sapiens, UniProt Q9UNA0); assay: ADAMTS5 enzyme inhibition, aggrecan G1-IGD-G2 cleavage, sandwich ELISA detection (evaluation method 2); assay type: biochemical; conditions: Table 6; 2 nM aptamer; 0.2 nM ADAMTS5, 400 nM substrate, 30 min
# T1 construct: purchased R&D systems
# T1 sequence (Q9UNA0 262-930): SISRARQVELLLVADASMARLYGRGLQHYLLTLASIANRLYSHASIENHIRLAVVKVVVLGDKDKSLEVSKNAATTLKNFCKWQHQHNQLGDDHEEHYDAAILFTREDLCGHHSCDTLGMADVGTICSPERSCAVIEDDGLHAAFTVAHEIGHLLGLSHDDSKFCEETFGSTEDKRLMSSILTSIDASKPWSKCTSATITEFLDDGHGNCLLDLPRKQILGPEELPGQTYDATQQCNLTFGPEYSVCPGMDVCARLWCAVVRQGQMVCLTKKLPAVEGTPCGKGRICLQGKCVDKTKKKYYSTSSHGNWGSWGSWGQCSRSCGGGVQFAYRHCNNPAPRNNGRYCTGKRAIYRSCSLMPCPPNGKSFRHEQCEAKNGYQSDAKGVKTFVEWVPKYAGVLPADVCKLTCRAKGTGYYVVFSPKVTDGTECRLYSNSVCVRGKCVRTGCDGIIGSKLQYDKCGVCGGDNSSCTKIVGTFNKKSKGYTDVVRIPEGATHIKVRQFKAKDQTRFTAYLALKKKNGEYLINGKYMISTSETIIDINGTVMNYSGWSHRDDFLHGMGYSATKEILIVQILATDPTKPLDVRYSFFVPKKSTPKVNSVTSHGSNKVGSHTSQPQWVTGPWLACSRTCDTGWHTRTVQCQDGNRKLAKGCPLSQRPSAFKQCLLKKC
# Protocol: On the other hand, the aptamers having the sequences shown by the sequences of SEQ ID NOs: 11(34)-11(35) and SEQ ID NO: 15 were evaluated by the following method (evaluation method 2). The cleavage reaction of the substrate (aggrecan G1-IGD-G2) by ADAMTS5 was performed in the same manner as in Example 1 except the following points. The differences are that the final concentrations of ADAMTS5 and the substrate were respectively 0.2 nM and 400 nM (48 μg/mL), and that the enzyme reaction time was 30 min. After the reaction, the reaction was stopped by adding an excess amount of an ADAMTS5 small molecule inhibitor. The cleaved substrate was quantified by a sandwich ELISA method using two kinds of anti-aggrecan antibodies. […] Using this, the amount of cleaved substrate can be quantified. […] The inhibition rate of the test substance was calculated using the following equation. inhibition rate (%)=(PE−Papt)/(PE−P0)×100 wherein PE is the amount of a cleaved substrate with the addition of ADAMTS5, Papt is the amount of a cleaved substrate with the addition of a test substance, and P0 is the residual amount of a cleaved substrate without the addition of ADAMTS5.
# The measurement results of the inhibitory activity of the aptamers having the sequences shown in SEQ ID NOs: 11(34)-11(35) and SEQ ID NO: 15 are shown in Table 6, evaluation method 2. […] “n.d.” means not determined. […]
substance,measurement,setting,value
"15 (AUUGGCACGGAGACAGCGCUCGCUUCUCGAUCACCAAU; listed as RNA, chemistry not given here) [compound 15]",inhibition rate (%) 3 nM,HFLS-OA cells; 3 nM aptamer,10%
same,inhibition rate (%) 30 nM,HFLS-OA cells; 30 nM aptamer,8%
same,inhibition rate (%) 300 nM,HFLS-OA cells; 300 nM aptamer,37%
same,inhibitory activity (%) evaluation method 2,ADAMTS5,16.5%

# From patent publication US11473089B2, “Aptamer for ADAMTS5 and use for aptamer for ADAMTS5” (RIBOMIC INC., priority 2017, dated 2022)
